Values joined by “and” are separate entries in the source; they are usually repeats but may differ in a detail not shown here. Equal values may be shown once. “Also recorded” adds a separate entry of the source. Read-outs that look alike come from different tables or passages of the source.
Columns and labels:
[1] = test system: 47 human off-target liabilities; assay: DiscoverX Safety47 panel (78 functional assays); conditions: @ 30 μM
Description: (§1) Screening for off-target pharmacology across multiple drug target classes was performed in the DiscoverX Safety47 panel as the SAFETYscan E/IC50 ELECT service by Eurofins (San Diego CA, U.S.A.). Assay information and data are presented in the Supporting Information.
(§2) Safety pharmacology studies
(§3) Screening for off-target pharmacology across multiple drug target classes was performed in the DiscoverX Safety47™ panel as the SAFETYscan E/IC50 ELECT service by eurofins (San Diego CA, U.S.A.). The assays were performed utilizing the PathHunter enzyme fragment complementation (EFC) technology, FLIPR®-based cellular screening assays, KINOMEscan kinase binding assays, and a variety of enzymatic assays (78 assays).

serine hydrolases = assay: ABPP-TMT serine hydrolase selectivity in SW620 cells; conditions: SW620 conditioned media and cell lysates
nAChR(a4/b2) = target: T1, nAChR(a4/b2) (Homo sapiens, UniProt P17787+P43681); assay: Safety47 nAChR(a4/b2) antagonist assay; assay type: cell-based
T1 construct: Eurofins (DiscoverX Safety47)
T1 sequence (P43681 29-627 limits assumed): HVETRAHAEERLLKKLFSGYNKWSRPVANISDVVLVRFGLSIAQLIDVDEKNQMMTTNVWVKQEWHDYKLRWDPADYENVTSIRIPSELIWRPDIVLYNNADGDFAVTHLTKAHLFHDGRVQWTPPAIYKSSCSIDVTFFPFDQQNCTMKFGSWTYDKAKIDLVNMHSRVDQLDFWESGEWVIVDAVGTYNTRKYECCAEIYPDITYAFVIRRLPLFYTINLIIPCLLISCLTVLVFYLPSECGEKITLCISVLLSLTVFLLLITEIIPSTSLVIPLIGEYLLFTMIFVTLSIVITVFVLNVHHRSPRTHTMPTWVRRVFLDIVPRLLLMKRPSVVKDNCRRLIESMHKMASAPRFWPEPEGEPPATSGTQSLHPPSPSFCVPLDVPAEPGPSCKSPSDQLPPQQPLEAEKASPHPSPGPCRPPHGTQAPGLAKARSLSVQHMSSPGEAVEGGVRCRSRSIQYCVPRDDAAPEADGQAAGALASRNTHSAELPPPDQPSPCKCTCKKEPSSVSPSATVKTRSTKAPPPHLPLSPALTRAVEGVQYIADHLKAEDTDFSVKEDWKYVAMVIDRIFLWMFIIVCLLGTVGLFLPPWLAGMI
T1 sequence (P17787 26-502): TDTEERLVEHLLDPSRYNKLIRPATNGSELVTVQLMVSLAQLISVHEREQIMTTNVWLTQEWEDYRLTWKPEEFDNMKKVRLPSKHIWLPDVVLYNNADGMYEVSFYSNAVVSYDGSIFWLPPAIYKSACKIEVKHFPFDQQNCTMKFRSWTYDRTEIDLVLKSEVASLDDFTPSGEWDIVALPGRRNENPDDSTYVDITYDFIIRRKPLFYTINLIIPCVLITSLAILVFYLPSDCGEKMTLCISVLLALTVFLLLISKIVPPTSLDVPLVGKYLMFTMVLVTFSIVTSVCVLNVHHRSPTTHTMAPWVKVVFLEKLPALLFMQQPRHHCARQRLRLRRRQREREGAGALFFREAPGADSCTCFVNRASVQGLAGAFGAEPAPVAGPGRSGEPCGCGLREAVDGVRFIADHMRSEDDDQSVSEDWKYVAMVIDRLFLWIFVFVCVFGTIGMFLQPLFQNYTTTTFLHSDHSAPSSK
Description: as §1, §2, §3

CYP2C8 = target: T2, CYP2C8 (Homo sapiens, UniProt P10632); assay: CYP450 inhibition in HLM
T2 sequence (P10632 1-490): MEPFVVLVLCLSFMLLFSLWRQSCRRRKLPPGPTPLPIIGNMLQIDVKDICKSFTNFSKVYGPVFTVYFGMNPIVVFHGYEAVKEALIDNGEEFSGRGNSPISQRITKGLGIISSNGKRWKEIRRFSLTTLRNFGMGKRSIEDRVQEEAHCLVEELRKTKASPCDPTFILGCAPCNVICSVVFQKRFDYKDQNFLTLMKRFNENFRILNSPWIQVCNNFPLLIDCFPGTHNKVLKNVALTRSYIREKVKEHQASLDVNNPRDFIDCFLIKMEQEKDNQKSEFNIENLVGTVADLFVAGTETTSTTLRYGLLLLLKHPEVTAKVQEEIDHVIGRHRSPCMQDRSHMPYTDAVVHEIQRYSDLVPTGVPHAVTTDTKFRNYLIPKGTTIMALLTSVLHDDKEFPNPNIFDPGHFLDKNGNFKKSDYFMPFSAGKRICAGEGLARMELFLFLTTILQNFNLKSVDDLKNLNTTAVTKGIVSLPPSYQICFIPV

CYP2B6 = target: T3, CYP2B6 (Homo sapiens, UniProt P20813); assay: CYP450 inhibition in HLM
T3 sequence (P20813 1-491): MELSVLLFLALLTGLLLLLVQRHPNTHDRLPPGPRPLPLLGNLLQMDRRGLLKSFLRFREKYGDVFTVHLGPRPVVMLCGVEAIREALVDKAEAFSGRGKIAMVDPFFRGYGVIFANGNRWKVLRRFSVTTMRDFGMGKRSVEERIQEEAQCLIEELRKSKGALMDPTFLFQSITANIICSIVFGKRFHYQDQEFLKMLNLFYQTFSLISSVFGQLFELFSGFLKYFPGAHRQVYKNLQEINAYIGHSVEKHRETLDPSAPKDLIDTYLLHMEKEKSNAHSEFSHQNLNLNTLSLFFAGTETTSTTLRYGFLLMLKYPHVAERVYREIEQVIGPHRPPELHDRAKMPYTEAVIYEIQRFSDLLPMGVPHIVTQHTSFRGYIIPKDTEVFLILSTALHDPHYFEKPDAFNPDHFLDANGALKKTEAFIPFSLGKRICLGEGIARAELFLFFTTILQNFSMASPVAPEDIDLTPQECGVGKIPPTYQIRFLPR

HTR3A = target: T4, HTR3A (Homo sapiens, UniProt P46098); assay: Safety47 HTR3A antagonist assay; assay type: cell-based
T4 construct: Eurofins (DiscoverX Safety47)
T4 sequence (P46098 24-478): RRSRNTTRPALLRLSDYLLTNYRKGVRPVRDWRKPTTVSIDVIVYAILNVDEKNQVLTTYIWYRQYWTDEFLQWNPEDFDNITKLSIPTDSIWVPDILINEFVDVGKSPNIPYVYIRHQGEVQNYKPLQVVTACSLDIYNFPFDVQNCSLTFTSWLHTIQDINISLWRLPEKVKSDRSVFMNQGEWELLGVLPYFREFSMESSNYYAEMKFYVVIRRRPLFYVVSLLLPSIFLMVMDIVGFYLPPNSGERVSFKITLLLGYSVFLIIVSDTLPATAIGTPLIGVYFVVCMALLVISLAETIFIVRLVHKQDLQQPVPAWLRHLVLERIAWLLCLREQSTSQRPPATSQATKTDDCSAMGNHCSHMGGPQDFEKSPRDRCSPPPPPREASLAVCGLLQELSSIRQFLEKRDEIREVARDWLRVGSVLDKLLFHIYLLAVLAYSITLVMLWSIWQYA
Description: as §1, §2, §3

[2] = Plasma protein binding, rapid equilibrium dialysis; conditions: for fraction unbound at 4 h, 2 µM: plasma
Description: G. Plasma protein binding (PPB):
(§4) Method: rapid equilibrium dialysis.
Test System Mouse Plasma (K2EDTA)
Test compound concentration 10 µM (mouse) or 2 µM (rat)

[3] = Metabolic stability in rat hepatocytes
[4] = Stability in dog liver microsomes
[5] = Brain tissue binding, rapid equilibrium dialysis; assay type: in vitro ADME, rat
Description: as §4
Test System Mouse Brain Homogenate 10% w/v in PBS
Incubation Time 5 h (mouse) or 4 h (rat)
No. of Replicates Two (mouse) or three (rat)
Buffer Phosphate buffer saline, pH 7.4
% Unbound in brain % Bound in brain %
Compound Species / Matrix homogenate SD homogenate Recovery

Wnt signaling = assay: TCF/LEF reporter (Luciferase) assay in the absence of Notum; assay type: cell-based; conditions: up to 10 μM; n = 4
Description: Figure S10. Notum TCF/LEF reporter (Luciferase) data with WNT3A (100 ng/mL) in the absence of Notum.
Examples are from different
Additional inhibition -concentration curves for compounds 6-9 will be made available upon reasonable request.

hERG = target: T5, hERG (Homo sapiens, UniProt Q12809); assay: Safety47 hERG assay; assay type: cell-based
T5 construct: Eurofins (DiscoverX Safety47)
T5 sequence (Q12809 whole entry): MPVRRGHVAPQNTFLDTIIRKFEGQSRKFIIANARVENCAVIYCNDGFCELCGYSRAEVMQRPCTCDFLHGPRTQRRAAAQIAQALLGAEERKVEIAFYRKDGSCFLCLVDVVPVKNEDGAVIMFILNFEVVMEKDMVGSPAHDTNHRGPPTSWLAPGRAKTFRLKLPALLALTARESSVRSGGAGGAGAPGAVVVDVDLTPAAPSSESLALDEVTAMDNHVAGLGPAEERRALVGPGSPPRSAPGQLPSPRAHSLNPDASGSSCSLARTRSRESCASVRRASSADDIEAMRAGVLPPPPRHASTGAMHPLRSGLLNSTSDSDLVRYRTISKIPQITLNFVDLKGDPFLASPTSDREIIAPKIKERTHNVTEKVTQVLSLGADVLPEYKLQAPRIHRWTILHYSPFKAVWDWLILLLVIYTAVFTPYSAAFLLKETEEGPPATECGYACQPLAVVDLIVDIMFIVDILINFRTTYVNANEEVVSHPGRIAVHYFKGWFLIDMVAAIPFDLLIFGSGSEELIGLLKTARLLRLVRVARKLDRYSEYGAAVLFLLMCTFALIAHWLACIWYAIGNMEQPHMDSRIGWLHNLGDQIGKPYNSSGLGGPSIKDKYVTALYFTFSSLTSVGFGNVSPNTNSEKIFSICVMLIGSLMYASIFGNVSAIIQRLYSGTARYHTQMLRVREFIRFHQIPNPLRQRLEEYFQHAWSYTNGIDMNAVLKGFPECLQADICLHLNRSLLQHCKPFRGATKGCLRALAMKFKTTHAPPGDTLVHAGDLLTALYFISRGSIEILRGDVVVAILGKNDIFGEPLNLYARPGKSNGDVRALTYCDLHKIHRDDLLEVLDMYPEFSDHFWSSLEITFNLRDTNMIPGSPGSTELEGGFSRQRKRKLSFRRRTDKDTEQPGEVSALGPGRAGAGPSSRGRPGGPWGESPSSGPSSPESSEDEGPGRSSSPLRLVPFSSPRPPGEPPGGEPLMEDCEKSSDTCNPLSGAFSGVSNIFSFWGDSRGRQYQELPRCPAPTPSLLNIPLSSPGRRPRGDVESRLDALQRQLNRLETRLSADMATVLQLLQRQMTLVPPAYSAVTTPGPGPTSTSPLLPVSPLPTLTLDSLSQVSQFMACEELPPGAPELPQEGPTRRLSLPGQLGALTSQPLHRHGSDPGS
Description: as §1

[6] = Stability in rat liver microsomes
CYP2C19 = CYP2C19 (Homo sapiens, UniProt P33261); assay: CYP450 inhibition in HLM
Chain of CYP2C19 (P33261 whole entry): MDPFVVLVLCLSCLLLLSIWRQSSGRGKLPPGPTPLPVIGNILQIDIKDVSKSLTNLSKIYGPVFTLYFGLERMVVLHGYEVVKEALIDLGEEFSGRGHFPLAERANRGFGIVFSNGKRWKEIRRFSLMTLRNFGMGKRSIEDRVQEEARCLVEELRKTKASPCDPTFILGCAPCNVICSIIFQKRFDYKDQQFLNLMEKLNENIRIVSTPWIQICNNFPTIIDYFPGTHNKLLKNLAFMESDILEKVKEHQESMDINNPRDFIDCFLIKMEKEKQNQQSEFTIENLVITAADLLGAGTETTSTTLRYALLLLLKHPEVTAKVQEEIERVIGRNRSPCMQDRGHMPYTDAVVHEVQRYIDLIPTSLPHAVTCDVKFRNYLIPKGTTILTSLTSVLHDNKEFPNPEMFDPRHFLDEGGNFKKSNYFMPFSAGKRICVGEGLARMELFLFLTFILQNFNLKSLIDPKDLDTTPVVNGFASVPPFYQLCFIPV

CYP450 enzymes = assay: CYP time-dependent inactivation (IC50 shift); assay type: in vitro ADME, human; conditions: HLM preincubation ± NADPH
[7] = Sprague–Dawley male rats, i.v. 1.0 mg/kg

SMILES: FC(F)(F)c1c(Cl)ccc(-n2ccnn2)c1Cl [8l, 1-(2,4-Dichloro-3-(trifluoromethyl)phenyl)-1H-1,2,3-triazole]
- assays with >50% activity [1]: 3/78
- Cross reactivity (other serine hydrolases detected) (serine hydrolases): no cross reactivity against any of the other 39 serine hydrolases detected and 0/39
- IC50 (nAChR(a4/b2); Figure S14, read-out: nAChR(a4/b2) antagonist RC50): 10.2 µM
- IC50 (nAChR(a4/b2); read-out: nAChR(a4/b2) IC50): 10 µM
- IC50 (CYP2C8; read-out: CYP inhibition IC50, 2C8, HLM): > 50 µM
- IC50 (CYP2C8; read-out: IC50 CYP2C8/Amodiaquine, (+)NADPH pre-incubation): > 50 µM
- IC50 (CYP2C8; read-out: IC50 CYP2C8/Amodiaquine, (-)NADPH pre-incubation): > 50 µM
- CL [7]: 7.5 mL/min/kg
- Vdss [7]: 2.0 L/kg
- t1/2 [7]: 3.3 h
- Fo (rat, p.o. 10 mg/kg): 140%
- AUC0–inf (rat, p.o. 10 mg/kg, brain): 46 100 ng·h/g
- Tmax (rat, p.o. 10 mg/kg, brain): 0.5 h
- t1/2 (rat, p.o. 10 mg/kg, brain): 8.9 h
- AUC0–inf (rat, p.o. 10 mg/kg, plasma): 32 000 ng·h/mL
- Tmax (rat, p.o. 10 mg/kg, plasma): 4.0 h
- t1/2 (rat, p.o. 10 mg/kg, plasma): 4.7 h
- IC50 (CYP2B6): 3.15 µM
- IC50 (CYP2B6; read-out: CYP inhibition IC50, 2B6, HLM): 5.2 µM
- IC50 (CYP2B6; read-out: IC50 CYP2B6/Bupropion, (+)NADPH pre-incubation): 5.21 µM
- IC50 (HTR3A): 4.5 µM
- fraction unbound at 4 h, 2 µM ([2]; SD, rat, pH 7.4): 0.0552
- fraction unbound at 4 h, 2 µM ([2]; SD, rat, pH 7.4, Plasma protein binding (PPB), % bound, rat plasma): 0.0552
- recovery at 4 h, 2 µM ([2]; SD, rat, rat plasma, pH 7.4): 99.3%
- Plasma protein binding (PPB), % bound ([2]; mouse plasma): 95.8%
- recovery at 5 h, 10 µM ([2]; mouse, mouse plasma (K2EDTA), pH 7.4): 89.9%
- Plasma protein binding (PPB), % bound ([2]; rat plasma): 94.5%
- half-life [3]: 2.78 h
- hepatocyte CLint [3]: 8.3 µL/min/1e6 cells
- Liver microsome stability Cli, DLM [4]: 10.8 μL/min/mg protein
- half-life ([4]; dog, liver microsomes): 2.14 h
- fraction unbound at 4 h, 2 µM ([5]; brain homogenate, pH 7.4, SD rat, 4 h): 0.029
- recovery at 4 h, 2 µM ([5]; pH 7.4, SD rat brain homogenate): 86.8%
- Brain binding, % bound ([5]; rat brain homogenate): 97.1%
- Wnt response in the absence of Notum (Wnt signaling): maximal Wnt response at all concentrations tested
- IC50 (hERG): > 30 µM
- Liver microsome stability Cli, RLM [6]: < 9.6 μL/min/mg protein
- half-life ([6]; rat, liver microsomes): > 2.42 h
- IC50 (CYP2C19): 7.27 µM
- IC50 (CYP2C19; read-out: CYP inhibition IC50, 2C19, HLM): 8.1 µM
- IC50 (CYP2C19; read-out: IC50 CYP2C19/S-Mephenytoin, (+)NADPH pre-incubation): 8.07 µM
- CYP TDI (CYP450 enzymes): no evidence for CYP time-dependent inactivation (TDI); also recorded: negative

Source: paper PMC9150124, “Design of a Potent, Selective, and Brain-Penetrant Inhibitor of Wnt-Deactivating Enzyme Notum by Optimization of a Crystallographic Fragment Hit” (Journal of Medicinal Chemistry, 2022)
